# In patent publication US9765187B2, “MRI contrasting agent for contrasting cancer cell” (SNU R&DB FOUNDATION, priority 2014, dated 2017):
# Test system: HCT116 cells
# Assay: pH-dependent cellular uptake (flow cytometry, fluorescence)
# Assay type: cell-based, human
# Details: fluorescence and flow cytometry
# Experimental: HCT116 cells were exposed to PMNs, InS-NPs and Ce6 at different pHs to verify their cellular uptake respectively. The cells were incubated for 2 h, washed, harvested, and re-suspended with DPBS. In vitro cellular uptake was quantified using a flow cytometer (Beckman, San Jose, Calif., USA). For each sample 10,000 cells (gated events) were counted, and free Ce6 fluorescence was detected with logarithmic settings (FL4; λem=670 nm). Cells were counted as positive if their fluorescence (FL4) was higher than that of cells from an untreated cell suspension. Each experiment was analyzed statistically using the CXP Analysis Program.
# The tumor cellular uptake of PMNs was monitored at different pH conditions (pH 7.4 and 6.8) using a KODAK In vivo Image Station (Image Station 4000 MM; Kodak, New Haven, Conn., USA) and a flow cytometer (Beckman, San Jose, Calif., USA). HCT116 cells (1×10^5 cells/mL) were incubated with each sample for 2 h in RPMI-1640 medium (pH 7.4 or 6.8, with 1% penicillin-streptomycin) at 37° C. and then analyzed. To ameliorate photobleaching during microscope observation, a drop of anti-fade mounting solution (5% N-propyl gallate, 47.5% glycerol, and 47.5% Tris-HCl, pH 8.4) was added to the cells.
substance,measurement,value
chlorin E6 [Ce6],cellular uptake at pH 6.8 versus pH 7.4,not affected by changes in pH
